Reference: patent publication US20050050594A1, “Tryptophan synthase as a site of herbicide action” (priority 1999, published 2005)
Like-named read-outs stand apart in the source and are kept apart here. Marks after values point to notes of the source that are not given here.

Assays:
[1] = target: T1, Salmonella typhimurium tryptophan synthase holoenzyme (α2β2), TSα reaction (Salmonella typhimurium, UniProt P00929); assay: Inhibition of tryptophan synthase by the TSα reaction, microtiter kinetic coupled enzyme assay; type: biochemical
T1 construct: made in house; host or cells: E. coli strain CB149pSTB7
T1 sequence (P00929 whole entry): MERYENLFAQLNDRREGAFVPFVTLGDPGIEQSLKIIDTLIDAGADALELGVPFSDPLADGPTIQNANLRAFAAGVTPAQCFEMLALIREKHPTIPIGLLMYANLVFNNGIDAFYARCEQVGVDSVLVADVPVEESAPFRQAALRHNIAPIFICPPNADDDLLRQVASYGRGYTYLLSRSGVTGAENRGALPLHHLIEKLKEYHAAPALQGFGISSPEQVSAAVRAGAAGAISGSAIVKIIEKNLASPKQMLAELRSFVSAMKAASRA
T1 sequence (P0A2K1 2-397, further chain): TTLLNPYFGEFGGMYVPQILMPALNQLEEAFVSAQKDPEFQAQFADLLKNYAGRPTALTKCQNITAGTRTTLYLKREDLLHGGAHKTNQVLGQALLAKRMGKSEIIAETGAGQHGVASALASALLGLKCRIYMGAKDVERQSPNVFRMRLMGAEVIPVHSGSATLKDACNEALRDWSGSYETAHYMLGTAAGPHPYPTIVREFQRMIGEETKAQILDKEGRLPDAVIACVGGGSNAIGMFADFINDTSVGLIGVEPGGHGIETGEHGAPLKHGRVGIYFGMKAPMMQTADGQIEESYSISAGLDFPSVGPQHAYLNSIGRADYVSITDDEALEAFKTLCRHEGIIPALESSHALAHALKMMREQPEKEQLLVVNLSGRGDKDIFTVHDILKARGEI
Description: Inhibitors of TS were identified by their ability to inhibit the production of glyceraldehyde-3-P by the TSα reaction of the Salmonella typhimurium holoenzyme (α2β2) in the presence of a limiting amount of indole-3-glycerolphosphate and an excess of serine
The assay was developed as a new microtiter plate kinetic enzyme assay based on the combined methods of Creighton (EurJBch 13:1-10, 1970) and Creighton and Yanofsky (JBC 241:980, 1966) with modifications. The rate of glyceraldehyde production was measured as the linear […] (spectrophotometric absorbance at 340 nm) in the presence of glyceraldehyde-3-phosphate dehydrogenase in a coupled enzyme assay.
The assay solution contained a test inhibitor compound, 50 mM Tris-Cl (pH 7.8), 6 mM sodium arsenate, 5 μg/ml pyridoxal phosphate, 0.5 mM DTT, 0.18M NaCl, 60 mM serine, 1.6 mM NAD+, 8 e.u./ml yeast glyceraldehyde-3-phosphate dehydrogenase (Sigma, Catalog #G2647; Kirschner et al., Eur J Bch, 1975, 60:513 and approximately 1.5 e.u. Salmonella TS. 100 μM IGP was added to start the reaction, which was run at 37° C. and using 300 μl per assay in a microtiter plate.
The substrate IGP was used at 1.5 to 2 times its Km concentration to enhance the likelihood of identifying weak inhibitors, binding at the substrate binding site. This approach to identifying enzyme inhibitors was novel, since an excess of all substrates, (at least 5-times the Km value of each), is conventionally used in the measurement of enzyme activity.
Potential inhibitors were evaluated by adding 100 μM inhibitor (equimolar to substrate IGP):or less, in a 1:1 dilution series down from 100 μM, until the inhibition measured was less than 15%. Reaction rates at Vmax were compared in the presence and absence of inhibitors.
In addition, some weaker inhibitors were identified following preincubation of the inhibitor with the TS assay mix for 24 hrs prior to the addition of IGP. The identifying weaker inhibitors is to aid in a quantitative structure activity relationship (QSAR) evaluation, or to identify new herbicidal inhibitor leads. The previously known inhibitor IPP was used as a standard in all tests, where the I50 for IPP was 1-2 uM.

[2] = system: TSβ (Spinacea enzyme); assay: TSβ assay with partially purified spinach enzyme; type: biochemical, Spinacea oleracea; parameters: key: the increase in the number of “+” corresponds to the increase of inhibition; +++++: the increase in the number of “+” corresponds to the increase of inhibition; +++++++: the increase in the number of “+” corresponds to the increase of inhibition; settings: determined qualitatively
Experimental: The assay was conducted in microfuge tubes by the TSβ reaction (indole+L-serine→L-tryptophan+H2O). 100 μL of extract was mixed with 150 μL of 0.4 mM indole, 80 mM serine, 0.03 mM PLP, 0.1 M Tris-Cl buffer pH 7.8, containing 7.5 μL of saturated NaCl. The mixture was incubated at 21° C. for increasing time intervals, from 10 min to several hours. The reaction was terminated by adding 25 μL 1 N NaOH, then 1 mL toluene with mixing, and then centifuging in a microfuge 2 min at 10,000×G to partition remaining indole into the toluene phase and away from the enzyme. Remaining indole was subsequently partitioned into the indole reagent phase and reacted with dimethylaminobenzaldehyde: 500 μL of the toluene layer from the microfuge tubes was mixed with 1 ml of the indole reagent in another tube and allowed to separate for 20 min, then the lower layer was carefully pipetted into a cuvette and its absorbance measured at 540 nm. This part of the assay was conducted as known in the art.
A unique microtiter plate method was also developed to streamline the partitioning steps and data collection. First, the TSβ reaction was performed as above in microfuge tubes. […] The plate was covered by a mylar sheet (to protect the plate reader and avoid evaporation) and absorbance was monitored on the plate reader at 535 nm. […]
TS was partially purified from spinach for use in the TSβ assay. The greatest degree of purification was achieved by homogenizing the tissue, preparing the 30-50% ammonium sulfate fraction and freezing it, thawing it, and applying the dissolved precipitate to an FPLC column (Waters SW300, Waters Corporation, Franklin, Mass.) to separate the TS activity (measured as TSβ) from the bulk of the protein. […] Because of the low yield of the assay of partially purified plant TS, endogenous enzyme was measured in crude extracts or in enzyme preparations involving one or two purification steps. […]

[3] = target: TSα subunit; settings: TSα subunit reaction; cited from earlier work
[4] = target: T2, Arabidopsis TS enzyme (Arabidopsis thaliana, UniProt Q42529); assay: TSα assay with recombinant plant TSα and TSβ expressed in E. coli; type: biochemical; settings: inhibitor 82 uM; pAC 758 (1.5 ug) + pAC 755 (3 ug)
T2 construct: GST (N, cleaved yes); made in house; host or cells: E. coli DH5α (pGEX-2T constructs)
T2 sequence (Q42529 with tags, fused parts or gaps): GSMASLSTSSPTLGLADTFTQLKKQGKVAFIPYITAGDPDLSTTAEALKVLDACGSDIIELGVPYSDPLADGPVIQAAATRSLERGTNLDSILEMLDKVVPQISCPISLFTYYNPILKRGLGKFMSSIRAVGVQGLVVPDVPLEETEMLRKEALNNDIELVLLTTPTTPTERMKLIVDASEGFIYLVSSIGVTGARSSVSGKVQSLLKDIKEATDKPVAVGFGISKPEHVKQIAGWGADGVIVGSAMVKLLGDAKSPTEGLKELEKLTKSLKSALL
T2 sequence (P14671 with tags, fused parts or gaps partner): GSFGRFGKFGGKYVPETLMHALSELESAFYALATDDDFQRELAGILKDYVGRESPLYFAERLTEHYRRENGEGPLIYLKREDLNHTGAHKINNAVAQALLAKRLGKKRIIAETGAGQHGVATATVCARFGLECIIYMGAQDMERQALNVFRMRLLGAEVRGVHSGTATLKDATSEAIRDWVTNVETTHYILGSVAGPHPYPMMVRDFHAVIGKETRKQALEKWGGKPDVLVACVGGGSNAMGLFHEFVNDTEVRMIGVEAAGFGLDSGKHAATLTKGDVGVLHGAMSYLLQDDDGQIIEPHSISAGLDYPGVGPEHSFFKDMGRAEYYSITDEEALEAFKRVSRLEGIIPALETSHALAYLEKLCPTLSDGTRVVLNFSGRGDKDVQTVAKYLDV
Experimental: The plant TS proteins were expressed as fusion proteins with glutathione transferase (GST) to facilitate purification. After purification, the GST protein was cleaved off with thrombin as described above before the plant TS assays were performed. After thrombin cleavage, both TSα and TSβ-subunit proteins retained a Gly-Ser residue on the N-terminal of the protein in addition to the TS sequence. […]
The TSα enzyme assay was conducted as described in Example 3 for Salmonella TSα.
Specifically, phenylthiophosphonic acid compounds were used. The TSα assay conditions were as described for Salmonella TSα in Example 3 except that recombinant plant proteins were used instead of the Salmonella enzyme.

[5] = system: a variety of dicotyledonous and monocotyledonous plants; assay: Postemergence greenhouse herbicidal test; type: in vivo; settings: post emergence greenhouse test, 4 kg/ha
Experimental: The herbicidal activity of the compounds was tested as described in the U.S. Pat. No. 5,635,449. […] In the tests, seedling plants are grown in jiffy flats for about two weeks. The test compounds are dispersed in 50/50 acetone/water mixtures containing 0.5% TWEEN®20, a polyoxyethylene sorbitan monolaurate surfactant of Atlas Chemical Industries, in sufficient quantities to provide the equivalent of about 1.0 kg to 8.0 kg per hectare of test compound when applied to the plants through a spray nozzle operating at 40 psi for a predetermined time. After spraying, the plants are placed on greenhouse benches and are cared for in the usual manner, commensurate with conventional greenhouse practices. From four to five weeks after treatment, the seedling plants are examined and rate according to the rating system set forth below.

Compound	IC50 ([1]; TSα reaction, Salmonella holoenzyme, 30 min at 37° C., 100 μM IGP, read-out: TS inhibition I50) [nM]	IC50 ([1]; read-out: TSα activity (Salmonella enzyme) I50) [nM]	TSβ (Spinacea enzyme), relative activity [2]	Ki [3] [nM]	TSα activity, % of control [4]	TSα activity, relative Vmax [4] [mOD/min]	IC50 ([1]; I50 TS, TSα reaction of the highly purified Salmonella typhimiurium holoenzyme) [nM]	IC50 ([1]; I50 for IPP used as a standard in all tests, TSα reaction, 100 μM IGP) [nM]	IC50 ([1]; TS inhibition I50, TSα reaction, Salmonella holoenzyme, 30 min at 37° C., 100 μM IGP) [nM]	Herbicidal Activity [5]	IC50 ([1]; TSα activity (Salmonella enzyme) I50) [nM]
Phosphonic acid, {4-[(o-aminophenyl)thio]butyl}-, compound with cyclohexylamine (1:2)	400	550	+++++	–	–	–	–	–	–	–	–
O=P(O)(O)OCCCc1c[nH]c2ccccc12 [Compound 1, indole-3-propanol phosphate, reference compound]	–	–	–	15000	35.9 % of control	2.223	5000	1000 to 2000	2000	inactive	–
Cc1ccc(SCCCCP(=O)(O)O)c(N)c1 [Phosphonic acid,-{4-[(2-amino-p-tolyl)thio]butyl}-]	–	–	+++++++*	–	–	–	–	–	–	–	1000
